Experimental data reported in patent US20220315534A1, “BETA ADRENERGIC AGONIST AND METHODS OF USING THE SAME” (Curasen Therapeutics, Inc., priority 2019, published 2022).
Where two headings read alike, the source gives them in different places.

How the values were obtained:
[1] = biological target: T1, β1-adrenergic receptor (B1-AR) (Homo sapiens, UniProt P08588); assay: cAMP Gs dynamic HTRF assay, cells expressing β1-adrenergic receptor; format: cell-based
T1 construct: expressed in transfected cells
T1 sequence (P08588 whole entry): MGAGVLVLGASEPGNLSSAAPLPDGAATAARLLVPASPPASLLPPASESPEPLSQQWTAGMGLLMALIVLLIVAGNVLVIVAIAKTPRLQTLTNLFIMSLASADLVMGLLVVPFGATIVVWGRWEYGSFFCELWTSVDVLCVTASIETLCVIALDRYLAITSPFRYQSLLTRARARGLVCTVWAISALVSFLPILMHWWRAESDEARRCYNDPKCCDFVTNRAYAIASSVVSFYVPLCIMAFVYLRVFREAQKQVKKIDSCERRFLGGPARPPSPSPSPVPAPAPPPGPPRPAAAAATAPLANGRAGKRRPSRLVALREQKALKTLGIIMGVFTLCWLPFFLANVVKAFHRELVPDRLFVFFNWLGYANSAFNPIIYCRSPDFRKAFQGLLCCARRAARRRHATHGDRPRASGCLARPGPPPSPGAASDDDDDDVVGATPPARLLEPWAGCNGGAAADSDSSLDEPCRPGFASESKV
Experimental: (§1) cAMP homogeneous time-resolved fluorescence (HTRF): experimental methods. Compound efficacy is determined using the cAMP Gs dynamic HTRF assay (Cisbio, catalog #62AM4PEC) largely following the manufacturer's instructions, also detailed below.
(§2) Standard serial dilution curves are 10-point, 5-fold dilutions starting from a highest concentration of 10 μM. […] Assay plates are centrifuged at 500×g for 10 seconds. Compounds and IBMX are prepared at 2× final dose to compensate for addition of cells.
(§3) Cell preparation: 1× stimulation buffer, washing PBS (Dulbecco's phosphate-buffered saline, —Mg —Ca; Caisson Labs, catalog #PBL01), assay PBS (Dulbecco's phosphate-buffered saline, +Mg, +Ca; Caisson Labs, catalog #PBL02) and Versene (0.02% EDTA disodium salt solution in PBS without calcium or magnesium; Caisson Labs, catalog #EDL01) are pre-warmed to 37° C. Cells expressing beta-adrenergic receptor were washed in washing PBS to remove growth medium and then released from the surface by incubating with Versene for 5-10 minutes at 37° C. Cells are harvested using assay PBS, counted manually by hemocytometer or by an automated cell counter, pelleted by centrifugation (200×g, 5 minutes) and resuspended in 37° C. 1× stimulation buffer to a final density of […]. 5 μL of the suspended cell solution (7500 cell total) are added to all wells of the 384 well assay plate, the assay plate was covered with an Axygen® plate seal (Corning PCR-SP) and incubated in a humidified 37° C. environment supplemented with 5% CO2 for 30 minutes.
(§4) HTRF reagent addition, reading and data analysis: After 30 minutes of cell stimulation with test compound, the assay plates are centrifuged at 500×g for 10 seconds, and incubation was stopped with the addition of 5 μL cAMP-D2 acceptor, diluted 1:21 in detection and lysis buffer 2 (Cisbio 62CL2FDF) was added to all cells. Subsequently, 5 μL Anti-cAMP-Eu Donor, diluted 1:21 in detection and lysis buffer 2, was added to cells. Plates were sealed and reactions gently ‘vortexed’ at 900 rpm on a Heidolph Titramax 1000 for at least 30 minutes at room temperature. Plates are centrifuged again at 500×g for 10 seconds, and HTRF was measured using a Tecan Spark plate reader at 50 flashes per well. […] Potency estimates (EC50 and pEC50) are derived from the four-parameter nonlinear regression of the concentration-effect curve and an estimate of relative efficacy is determined by comparing the magnitude of the test compound HTRF signal window (min-max dose) with the signal window of the full agonist control, isoproterenol.

[2] = biological target: T2, β2-adrenergic receptor (B2-AR) (Homo sapiens, UniProt P07550); assay: cAMP Gs dynamic HTRF assay, cells expressing β2-adrenergic receptor; format: cell-based
T2 construct: expressed in transfected cells
T2 sequence (P07550 whole entry): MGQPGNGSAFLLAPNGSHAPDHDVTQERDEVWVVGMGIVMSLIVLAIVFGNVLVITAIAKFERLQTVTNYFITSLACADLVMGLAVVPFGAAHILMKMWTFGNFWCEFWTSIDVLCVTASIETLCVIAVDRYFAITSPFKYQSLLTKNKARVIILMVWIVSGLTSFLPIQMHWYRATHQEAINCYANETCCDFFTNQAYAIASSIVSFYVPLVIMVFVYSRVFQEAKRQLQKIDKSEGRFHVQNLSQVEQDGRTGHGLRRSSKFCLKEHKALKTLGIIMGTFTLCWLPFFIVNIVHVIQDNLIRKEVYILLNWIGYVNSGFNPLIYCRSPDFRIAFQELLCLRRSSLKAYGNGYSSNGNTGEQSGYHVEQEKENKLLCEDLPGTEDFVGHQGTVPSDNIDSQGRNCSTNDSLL
Experimental: as §1, §2, §3, §4

[3] = CHO-K1 (HitHunter) cells, read-out: Average pEC50 [Receptor subtype: B1-AR, Cell type: CHO-K1 (HitHunter)] (converted)
[4] = CHO-K1 (HitHunter) cells, read-out: Average pEC50 [Receptor subtype: B2-AR, Cell type: CHO-K1 (HitHunter)] (converted)

Structure (SMILES)	EC50 [1, 3]	EC50 [2, 4]	further results
CC(C)(C)NC[C@H](O)c1ccnc2[nH]ncc12 [Compound 04-127]	10 to 100 nM	< 10 nM	–
CC(C)(C)NC[C@H](O)c1cccc2[nH]ccc12 [Compound 04-105]	> 1000 nM	> 1000 nM	–
CC(C)(C)NC[C@H](O)c1ccc2nn[nH]c2c1 [Compound 04-115]	100 to 1000 nM	10 to 100 nM	–
O=c1ccc2c([C@@H](O)CNC3CCC3)cccc2[nH]1 [Compound 04-142]	< 10 nM	< 10 nM	–
CC(C)(C)NC[C@H](O)c1cccc2c1OCC(=O)N2 [Compound 04-19]	< 10 nM	< 10 nM	–
CC(C)(C)NC[C@H](O)c1ccc2[nH]cnc2c1 [Compound 04-124]	10 to 100 nM	< 10 nM	–
Cc1nc(N)c(Cl)cc1[C@H](O)CNC(C)(C)C [Compound 02-9]	100 to 1000 nM	10 to 100 nM	–
Cn1ncc2cc([C@@H](O)CNC(C)(C)C)ccc21 [Compound 04-49]	> 1000 nM	> 1000 nM	–
Cc1noc2cccc([C@@H](O)CNC(C)(C)C)c12 [Compound 04-29]	100 to 1000 nM	> 1000 nM	–
CC(C)(C)NC[C@H](O)c1cccc2[nH]nc(F)c12 [Compound 04-113]	< 10 nM	< 10 nM	–
CC(C)(C)NCC(O)c1ccc2ccc(C(F)(F)F)cc2[n+]1[O-] (stereo not drawn) [Compound 04-137]	100 to 1000 nM	10 to 100 nM	–
CC(C)(C)NC[C@H](O)c1ccc2[nH]ncc2c1 [Compound 04-48]	> 1000 nM	> 1000 nM	–
CC(C)CNC[C@H](O)c1cccc2[nH]c(=O)ccc12 [Compound 04-143]	10 to 100 nM	10 to 100 nM	–
CC(C)(C)NC[C@@H](O)c1cccc(N)n1 [Compound 02-6]	100 to 1000 nM	10 to 100 nM	–
CC(C)(C)NC[C@H](O)c1cccc2cn[nH]c12 [Compound 04-26]	10 to 100 nM	10 to 100 nM	–
CC(C)(C)NC[C@H](O)c1cccc2[nH]nc(C#N)c12 [Compound 04-151]	< 10 nM	10 to 100 nM	–
CC(C)(C)NC[C@H](O)c1cccc2[nH]cnc12 [Compound 04-24]	10 to 100 nM	10 to 100 nM	–
CC(C)(C)NC[C@H](O)c1ccc2ncccc2c1 [Compound 04-38]	100 to 1000 nM	< 10 nM	–
CC(C)(C)NC[C@H](O)c1cc(F)c2[nH]cnc2c1 [Compound 04-156]	10 to 100 nM	< 10 nM	–
Cc1ccc([C@@H](O)CNC(C)(C)C)c2cn[nH]c12 [Compound 04-130]	< 10 nM	< 10 nM	–
CC(C)(C)NC[C@H](O)c1cccc(O)n1 [Compound 02-7]	> 1000 nM	> 1000 nM	–

Structure (SMILES)	EC50 [1, 3]	EC50 [2, 4]	further results
Cc1noc2ccc([C@H](O)CNC(C)(C)C)cc12 [Compound 04-52]	100 to 1000 nM	10 to 100 nM	–
O[C@H](CNC1(C(F)(F)F)CC1)c1cccc2cccnc12 [Compound 04-68]	> 1000 nM	> 1000 nM	–
O[C@@H](CNC1(C(F)(F)F)CC1)c1cccc2cccnc12 [Compound 04-67]	> 1000 nM	> 1000 nM	–
CC(C)(C)NC[C@H](O)c1ccc2c(n1)NCC2 [Compound 04-11]	10 to 100 nM	10 to 100 nM	–
CC(C)(C)NC[C@H](O)c1ncc(O)c2ccccc12 [Compound 04-97]	> 1000 nM	> 1000 nM	–
CC(C)(C)NC[C@H](O)c1ccc2c(c1)[nH]c1ncccc12 [Compound 04-128]	> 1000 nM	100 to 1000 nM	–
CC(C)(C)NC[C@@H](O)c1ccc2cccc(Cl)c2n1 [Compound 04-40]	10 to 100 nM	10 to 100 nM	–
CC(C)(C)NC[C@@H](O)c1ccc2ccc(C(F)(F)F)cc2n1 [Compound 04-136]	> 1000 nM	100 to 1000 nM	–
Cc1nc(N)c(C#N)cc1[C@@H](O)CNC(C)(C)C [Compound 02-10]	> 1000 nM	100 to 1000 nM	–
CC(C)NC[C@H](O)c1cccc2[nH]c(=O)ccc12 [Compound 04-152]	< 10 nM	< 10 nM	–
Cc1cc2c([C@@H](O)CNC(C)(C)C)cccc2[nH]c1=O [Compound 04-18]	< 10 nM	10 to 100 nM	–
CC(C)NC[C@H](O)c1cc(F)cc2[nH]ncc12 [Compound 04-149]	< 10 nM	< 10 nM	–
CC(C)(C)NC[C@H](O)c1cnc(N)c(C(F)(F)F)c1 [Compound 02-2]	–	–	Average pEC50 [Receptor subtype: B1-AR; Cell type: CHO-K1 (HitHunter)] ([1]; CHO-K1 (HitHunter) cells): D (D < 6); EC50 ([1]; Table 2, cAMP HTRF, read-out: β1 EC50): > 1000 nM; Average pEC50 [Receptor subtype: B2-AR; Cell type: CHO-K1 (HitHunter)] ([2]; CHO-K1 (HitHunter) cells): D (D < 6); EC50 ([2]; Table 2, cAMP HTRF, read-out: β2 EC50): > 1000 nM
CC(C)(C)NC[C@@H](O)c1cccc2cccnc12 [Compound 04-93]	100 to 1000 nM	100 to 1000 nM	–
CC(C)(C)NC[C@H](O)c1ccc2[nH]c3ccccc3c2c1 [Compound 04-54]	> 1000 nM	100 to 1000 nM	–
CC(C)(C)NC[C@H](O)c1cccc2c1C(C)(C)C(=O)N2 [Compound 04-102]	100 to 1000 nM	100 to 1000 nM	–
Cc1noc2ccc([C@@H](O)CNC(C)(C)C)cc12 [Compound 04-51]	> 1000 nM	> 1000 nM	–
CC(C)(C)NC[C@@H](O)c1ccc2cccc(C#N)c2n1 [Compound 04-134]	10 to 100 nM	100 to 1000 nM	–
COc1ccc(C[C@@H](C)NC[C@H](O)c2ccc3c(n2)NCCO3)cc1 [Compound 04-12]	100 to 1000 nM	10 to 100 nM	–
CC1(NC[C@H](O)c2cc(F)cc3[nH]ncc23)CCC1 [Compound 04-148]	< 10 nM	< 10 nM	–
